Results as given in patent US20260018245A1, “SYSTEMS AND METHODS FOR IDENTIFYING AND TARGETING COLLATERAL LETHAL GENES” (The Regents of the University of Michigan, priority 2022, published 2026).

How the values were obtained:
UQCR11-null HeyA8 cells = experiment: Resistance to MTHFD2 inhibition upon AOX expression or UQCR11 overexpression; type: cell-based; settings: 72 h
Description: FIG. 11 Investigating alternative metabolic pathways to rescue UQCR11-null cells from collateral lethal targeting of MTHFD2. (a) Correlation between NDUFS7 mRNA expression and copy-number alterations of the 19p13.3 locus, represented by UQCR11 copy-number in TCGA OVCA dataset (n=303). Correlations estimated using Spearman's rank correlation test. (b) Gene expression of NDUFS7 measured via qRT-PCR in UQCR11-null lines (OVCAR8, CAOV3, HeyA8) relative to NDUFS7 expression in UQCR11-intact line (SKOV3). Data representative of two independent experiments presented as mean±s.d. (n=5), analyzed using ordinary one-way ANOVA with Dunnett's correction for multiple comparisons. (c) Doseresponse curve for single-agent inhibition in SKOV3 cells by either Complex I inhibitor, rotenone, or MTHFD2 inhibitor. […] Data are representative of two independent experiments and presented as mean±s.e.m (n=3) and analyzed using two-tailed Welch's t-test. […] Viability decrease was measured 72 h after inhibitor treatment relative to vehicle control. […] (n=6) and analyzed using ordinary 2-way ANOVA with Sidak's correction for multiple comparisons. […] (n=4) and analyzed using two-tailed Welch's t-test. […] Viability decrease was measured 72 h after inhibitor treatment relative to vehicle control. […] (n=5) and analyzed using two-tailed Welch's t-test.

[1] = tested on: reductive MTHFD2 flux in SKOV3 cells; experiment: Reductive MTHFD2 flux by 2,3,3-[2H]-serine tracing; type: cell-based; settings: SKOV3 treated with MTHFD2 inhibitor 60 μM
Protocol: FIG. 4 Dynamic flux analysis with parallel tracers to quantify oxidative MTHFD2 flux. a, Oxidative MTHFD2 flux and percentage decrease in OCRfollowing MTHFD2 inhibition in SKOV3 cells treated with rotenone (0, 31, 62, 125, 250, 500 or 1,000 nM) and MTHFD2 inhibitor (0 or 60 μM). Oxidative MTHFD2 flux is proportional to [2H1]-serine/[2H1]-NADH enrichment in cells cultured with 4-[2H]-glucose for 8 h. Percentage decrease in OCR is estimated in SKOV3 cells treated with 60 μM MTHFD2i compared with 0 μM MTHFD2i. Oxidative flux data are combined from two independent experiments (n=4), with mean±s.d. estimated using error propagation. […] (n=6) and analysed using two-tailed Welch's t-test. e, Ratio of [2H2]-serine/[2H]-NADH enrichment in SKOV3 and OVCAR8 cells at 2 h after combined tracer introduction of 4-[2H]-glucose and [2H]-formate, representing the normalized contribution of [2H]-NADH to [2H2]-serine via oxidative MTHFD2 flux. Data combined from two independent experiments (n=6), with mean±s.d. estimated using error propagation and analysed by two-tailed Welch's t-test. f, [2H2]-serine enrichment in SKOV3 cells expressing shScramble or shUQCR11 at 2 h after combined tracer introduction of 4-[2H]-glucose and [2H]-formate. […] (n=5) and analysed using one-tailed non-parametric Mann-Whitney test. […]

## Cc1c(N2CCN(C)[C@@H](C)C2)ccc2c3c(c(=O)oc12)CN(C(=O)c1ccc(NS(C)(=O)=O)c(OC(F)(F)F)c1)CC3 [DS18561882]
UQCR11-null HeyA8 cells; HeyA8 ectopically expressing alternative oxidase AOX
  rescue from MTHFD2 inhibitor-mediated cell death: partially rescued
UQCR11-null HeyA8 cells; HeyA8 overexpressing UQCR11
  rescue from MTHFD2 inhibitor-mediated cell death: partially rescued
[1]
  reductive MTHFD2 flux: greatly reduced
